Where two headings read alike, the source gives them in different places.
Tests used:
mice [1] = format: in vivo
Experimental: (§1) The study of the acute toxicity of the stabilizers listed below was carried out by determining the dose of substance which provoked the death of 50% of the treated animals (LD50). A gummy suspension of the substance under study was administered by oral route to groups of at least ten mice and the following results were observed: […]

[2] = Extractibility of the stabilizer from Compound A containing Stabilizer 16
Experimental: This study was carried out in accordance with the requirements of the Food and Drug Administration (U.S.A.).
The extractions were performed in semi-rigid bottles, prepared with Compounds Nos. 609 and 675, and with the following solvents: water, an aqueous solution of acetic acid (3%), ethanol-water 50/50, heptane.
The ratio of the volume of solvent to the surface of plastic material exposed to extraction was about 1 cm^2 to […] of solvent, taking into account the geometric characteristics of the bottles.
The quantity of stabilizer extracted was determined by colorimetric assay using p-dimethylaminobenzaldehyde, in accordance with the method described in Analytical Chemistry 36, 425-26 (1964).
The amounts of stabilizer assayed are expressed in μg per liter of extraction solvent or, which is the same, per 1000 cm^2 of surface submitted to extraction.
The same trials were carried out with Compound A containing 2-(4'-dodecylthio-phenyl)-indole (Stabilizer 16) as stabilizer and the following results were obtained: […]

[3] = Static thermostability of stabilized resin, simplified method (GARDNER sub-scale), Compound A; details: 210° C
Experimental: (§2) The stabilizing power of the substances of the invention was studied from two points of view:
(§3) These studies were performed with six different formulae of vinyl resins (hereinafter referred to as Compounds).
(§4) The different compounds were mixed and calendered in a mixer of which the cylinders were heated to 160° C. The rigid sheets so obtained were then heated in an oven to a temperature between 180° C and 215° C, until incipient carbonization.
(§5) A stove with rotating drums, ventilated and equipped with a thermostat was used for this operation. In the trials described hereunder, the behaviour of a sheet containing the stabilizer to be tested was compared to that of a sheet of the same formula but containing 2-phenyl-indole as stabilizer.
(§6) 2. It is also possible to use a simplified method which is more rapid and with which valid results are also obtained: a reference scale is drawn up with sheets of thermally treated polyvinyl chloride, of which the colourations have been definitely determined in GARDNER degrees as above. A GARDNER sub-scale is thus obtained in polyvinyl chloride sheets which can be directly compared to the sheets to be tested without using the comparator.
Finally, trials were carried out with Stabilizers 15, 16 and 17 and with 2-phenyl-indole. Compound A was used and the temperature was 210° C.

mice [4] = assay: Acute toxicity by oral route in mice (LD50); format: in vivo; details: LD50 study
Experimental: as §1

[5] = Acute toxicity by oral route in mice (LD50); format: in vivo; details: mouse, in vivo, gummy suspension
Experimental: as §1

[6] = Static thermostability of stabilized resin, simplified method (GARDNER sub-scale), Compound D; details: 185° C
Experimental: as §2, §3, §4, §5, §6

[7] = Static thermostability of stabilized resin, simplified method (GARDNER sub-scale), Compound E; details: 185° C
Experimental: as §2, §3, §4, §5, §6

| SMILES | LDO (maximal dose which does not provoke any death) (mice [1]; mouse, in vivo, po) [mg/kg] | Static thermostability compared with 2-phenyl-indole [3] | Colouration of sheet (GARDNER sub-scale) ([3]; 0 min) | Colouration of sheet (GARDNER sub-scale) ([3]; 3 min) | Colouration of sheet (GARDNER sub-scale) ([3]; 6 min) | Colouration of sheet (GARDNER sub-scale) ([3]; 9 min) [GARDNER degrees] | Colouration of sheet (GARDNER sub-scale) ([3]; 12 min) [GARDNER degrees] | Colouration of sheet (GARDNER sub-scale) ([3]; 15 min) [GARDNER degrees] | Colouration of sheet (GARDNER sub-scale) ([3]; 18 min) | Toxic symptoms (mice [4]) | LD50 [5] [mg/kg] | other results |
| --- | --- | --- | --- | --- | --- | --- | --- | --- | --- | --- | --- | --- |
| CCCCCCCCCCCCSc1ccc(-c2cc3ccccc3[nH]2)cc1 [Stabilizer 16, 2-(4'-n-dodecylthio-phenyl)-indole] | > 3000 | very rapidly found to be superior to 2-phenyl-indole | 1 GARDNER degrees | 1 GARDNER degrees | 2 GARDNER degrees | 5 | 10 | 13 | burnt |  |  | Toxic symptoms (mice [1]; mouse, in vivo, po): none; Amount of stabilizer extracted ([2]; 3% aqueous acetic acid, 20 days): < 3 μg per liter; Amount of stabilizer extracted ([2]; aqueous ethanol 50/50, 9 days): < 10 μg per liter; Amount of stabilizer extracted ([2]; heptane, 48 hours): 175 μg per liter; Amount of stabilizer extracted ([2]; water, 10 days): < 3 μg per liter |
| Oc1ccc(-c2cc3ccccc3[nH]2)cc1 [Stabilizer 20, 2-(4'-hydroxy-phenyl)-indole] |  | markedly superior to 2-phenyl-indole | 1 GARDNER degrees | 1 GARDNER degrees | 2 GARDNER degrees | 4 | 9 | 11 |  | none | > 3000 |  |
| CCCCSc1ccc(-c2cc3ccccc3[nH]2)cc1 [Stabilizer 15, 2-(4'-butylthio-phenyl)-indole] | > 3000 | very rapidly found to be superior to 2-phenyl-indole | 1 GARDNER degrees | 1 GARDNER degrees | 2 GARDNER degrees | 5 | 10 | 13 | burnt |  |  | Toxic symptoms (mice [1]; oral, mice, LDO study): none |
| Nc1ccccc1-c1cc2ccccc2[nH]1 [Stabilizer 23, 2-(2'-amino-phenyl)-indole] |  | superior to 2-phenyl-indole | pink | pink | pink | 4 | 6 | 12 |  | none | > 2000 |  |
| CCCCC(CC)COc1ccc(-c2cc3ccccc3[nH]2)cc1 (stereo not drawn) [Stabilizer 7, 2-(2"-ethyl-4'-hexyloxy-phenyl)-indole] |  |  |  |  |  |  |  |  |  | none | > 2000 | Colouration given to the co-polymer [6]: less yellow with Stabilizer 7 than with 2-phenyl-indole; Static thermostability compared with 2-phenyl-indole [6]: markedly superior to 2-phenyl-indole; Colouration of sheet (GARDNER sub-scale) ([6]; 0 min): < 1 GARDNER degrees; Colouration of sheet (GARDNER sub-scale) ([6]; 10 min): < 2 GARDNER degrees; Colouration of sheet (GARDNER sub-scale) ([6]; 20 min): 2 GARDNER degrees; Colouration of sheet (GARDNER sub-scale) ([6]; 30 min): < 3 GARDNER degrees; Colouration of sheet (GARDNER sub-scale) ([7]; 0 min): < 1 GARDNER degrees; Colouration of sheet (GARDNER sub-scale) ([7]; 10 min): < 1 GARDNER degrees; Colouration of sheet (GARDNER sub-scale) ([7]; 20 min): < 2 GARDNER degrees; Colouration of sheet (GARDNER sub-scale) ([7]; 30 min): < 3 GARDNER degrees |

Reference: patent US4057530A, “2-Phenyl-indole derivatives and process for preparing the same” (priority 1974, dated 1977)
